Laboratory results from PubChem BioAssay (NCI).
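1) Cells in 96-well plates. 2) Compound, 48 h, 5 concentrations. 3) Linear interpolation between surrounding doses. 4) Unreached endpoint = highest concentration. TGI is the concentration that stops growth completely.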

How the values were obtained:
Assay in all cases: DTP human tumour cell line panel, 48 h
MDA-MB-435 = system: MDA-MB-435
IGROV1 ovarian = system: IGROV1 ovarian
HS 578T breast = system: HS 578T breast
UO-31 renal = system: UO-31 renal
NCI-H23 lung = system: NCI-H23 lung
786-0 renal = system: 786-0 renal
SK-OV-3 ovarian = system: SK-OV-3 ovarian
ACHN renal = system: ACHN renal
HL-60(TB) leukemia = system: HL-60(TB) leukemia
KM12 colon = system: KM12 colon
SK-MEL-2 melanoma = system: SK-MEL-2 melanoma
MCF7 breast = system: MCF7 breast
T-47D breast = system: T-47D breast
EKVX NSCLC = system: EKVX NSCLC
MDA-MB-231 breast = system: MDA-MB-231 breast
OVCAR-4 ovarian = system: OVCAR-4 ovarian
NCI/ADR-RES ovarian = system: NCI/ADR-RES ovarian
SN12C renal = system: SN12C renal
SK-MEL-5 melanoma = system: SK-MEL-5 melanoma

| Compound | TGI (MDA-MB-435) [µM] | TGI (IGROV1 ovarian) [µM] | TGI (HS 578T breast) [µM] | TGI (UO-31 renal) [µM] | TGI (NCI-H23 lung) [µM] | TGI (786-0 renal) [µM] | TGI (SK-OV-3 ovarian) [µM] | TGI (ACHN renal) [µM] | TGI (HL-60(TB) leukemia) [µM] | TGI (KM12 colon) [µM] | TGI (SK-MEL-2 melanoma) [µM] | TGI (MCF7 breast) [µM] | TGI (T-47D breast) [µM] | TGI (EKVX NSCLC) [µM] | TGI (MDA-MB-231 breast) [µM] | TGI (OVCAR-4 ovarian) [µM] | TGI (NCI/ADR-RES ovarian) [µM] | TGI (SN12C renal) [µM] | TGI (SK-MEL-5 melanoma) [µM] |
| --- | --- | --- | --- | --- | --- | --- | --- | --- | --- | --- | --- | --- | --- | --- | --- | --- | --- | --- | --- |
| C1=C2C3=[N+](CCCC3)CC2Cc2ccsc21 (stereo unspecified) | > 100 | > 100 | > 100 | > 100 | > 100 | > 100 | > 100 | > 100 | > 100 | > 100 | > 100 | > 100 | > 100 | > 100 | > 100 | > 100 | > 100 | > 100 | > 100 |
| CC(C)NC(=O)OCc1c(COC(=O)NC(C)C)c(-c2ccc[n+](COC(=O)CC(C)(C)C)c2)n2c1CCC2 | > 100 | > 100 | > 100 | > 100 | > 100 | > 100 | > 100 | > 100 | > 100 | > 100 | > 100 | > 100 | > 100 | > 100 | > 100 | > 100 | > 100 | > 100 | > 100 |
| C=C1CC[C@@]2(OC1)OC1C[C@H]3[C@@H]4CC=C5C[C@@H](O)CC(OC6OCC(OC(=O)[C@@H](O)[C@@H](C)CC)C(OC(C)=O)C6OC6OC(C)C(O)C(O)C6O)[C@]5(C)[C@H]4CC[C@]3(C)C1[C@@H]2C (stereo partly specified) | 3.38 | 7.79 | > 10 | 4.56 | 6.57 | 3.27 | 3.57 | 5.93 | 4.87 | 5.13 | 3.11 | 3.23 | > 10 | 6.51 | 3.23 | > 10 | 6 | 4 | 3.59 |
| Cc1[nH]c(=O)[nH]c(=S)c1C(=O)NC(C)(CO)CO | > 100 | > 100 | > 100 | > 100 | > 100 | > 100 | > 100 | > 100 | > 100 | > 100 | > 100 | > 100 | > 100 | > 100 | > 100 | > 100 | > 100 | > 100 | > 100 |
| C=C(C)[C@@H](C(=O)OC)N1C(=O)c2ccccc2C1=O | > 100 | > 100 | > 100 | > 100 | > 100 | > 100 | > 100 | > 100 | > 100 | > 100 | > 100 | > 100 | > 100 | > 100 | > 100 | > 100 | > 100 | > 100 | > 100 |
| CC(=O)NNc1nc(C)c(C(/C=C/c2cccc([N+](=O)[O-])c2)=N/NC(=S)NN)s1 | > 100 | > 100 | > 100 | > 100 | > 100 | > 100 | > 100 | > 100 | > 100 | > 100 | > 100 | > 100 | > 100 | > 100 | > 100 | > 100 | > 100 | > 100 | > 100 |
| CC(C(=O)N1c2ccccc2Sc2ccccc21)N1c2ccccc2Sc2ccccc21 (stereo unspecified) | > 100 | > 100 | > 100 | > 100 | > 100 | > 100 | > 100 | > 100 | > 100 | > 100 | > 100 | > 100 | > 100 | > 100 | > 100 | > 100 | > 100 | > 100 | > 100 |
| CCOC(=O)Cn1sc2ncc([N+](=O)[O-])cc2c1=O | 30 | 25.9 | > 100 | 21.8 | 39.3 | 30.6 | 34.6 | 29.5 | > 100 | 34.3 | 70.9 | 35.3 | 37.5 | > 100 | 29.3 | 38 | 35.5 | 31.6 | 85.3 |
| CCCN(CCCCC(NC(C)=O)C(=O)NCc1ccccc1)C(=O)N(CCCl)N=O (stereo unspecified) | > 100 | > 100 | > 100 | > 100 | 98.5 | > 89.4 | > 100 | > 100 | > 86 | > 100 | > 100 | > 100 | > 100 | > 100 | > 100 | > 100 | > 100 | > 100 | > 100 |
